{
  "source": "patent US20020193383A1",
  "about": "“1-(N-phenylalkylaminoalkyl)piperazine derivatives substituted at position 2 of the phenyl ring” (Recordati S.A., Chemical and Pharmaceutical Comoany, priority 1997, published 2002)",
  "molecular_target": "T1, human 5-HT1A serotonergic receptor (Homo sapiens, UniProt P08908)",
  "T1 construct": "expressed in transfected cells; host or cells: HeLa (stably transfected)",
  "T1 sequence (P08908 1-422)": "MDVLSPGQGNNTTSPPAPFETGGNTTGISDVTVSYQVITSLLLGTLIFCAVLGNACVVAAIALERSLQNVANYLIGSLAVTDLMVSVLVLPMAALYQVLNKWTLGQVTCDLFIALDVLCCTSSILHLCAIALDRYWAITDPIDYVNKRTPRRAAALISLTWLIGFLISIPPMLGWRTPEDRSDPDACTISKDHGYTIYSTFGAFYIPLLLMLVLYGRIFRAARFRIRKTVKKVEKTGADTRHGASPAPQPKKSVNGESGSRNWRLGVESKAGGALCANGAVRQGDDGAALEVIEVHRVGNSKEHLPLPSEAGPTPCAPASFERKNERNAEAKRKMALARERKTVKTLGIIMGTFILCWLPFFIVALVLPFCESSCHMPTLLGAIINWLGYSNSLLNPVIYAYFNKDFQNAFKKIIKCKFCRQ",
  "assay": "Binding to recombinant human 5-HT1A receptors ([3H]8-OH-DPAT, HeLa cell membranes)",
  "conditions": "read-out: Binding affinity for the 5-HT1A receptor, Ki",
  "description": "Genomic clone G-21 coding for the human 5-HT1A serotonergic receptor is stably transfected in a human cell line (HeLa). HeLa cells were grown as monolayers in Dulbecco's modified Eagle's medium (DMEM), supplemented with 10% fetal calf serum and gentamicin ([…]), 5% CO2 at 37° C. Cells were detached from the growth flask at 95% confluence by a cell scraper and were lysed in ice-cold 5 mM Tris and 5 mM EDTA buffer (pH 7.4). Homogenates were centrifuged at 40000×g×20 min and pellets were resuspended in a small volume of ice-cold 5 mM Tris and 5 mM EDTA buffer (pH 7.4) and immediately frozen and stored at −70° C. until use. On the day of experiment, cell membranes were resuspended in binding buffer: 50 mM Tris HCl (pH 7.4), 2.5 mM MgCl2, 10 μM pargiline (Fargin et al., Nature 335, 358-360, 1988). Membranes were incubated in a final volume of 1 ml for 30 min at 30° C. with 0.2-1 nM [3H]8-OH-DPAT, in absence or presence of competing drugs; non-specific binding was determined in the presence of 10 μM 5-HT. The incubation was stopped by addition of ice-cold Tris-HCl buffer and rapid filtration through 0.2% polyethyleneimine pretreated Whatman GF/B or Schleicher & Schuell GF52 filters.\nThe inhibition of specific binding of the radioligands by the tested drugs was analyzed to estimate the IC50 value by using the non-linear curve-fitting program Allfit (De Lean et al., Am. J. Physiol. 235, E97-E102, 1978). The IC50 value was converted to an affinity constant (Ki) by the equation of Cheng & Prusoff (Cheng, Y. C.; Prusoff, W. H. Biochem. Pharmacol. 22, 3099-3108, 1973).",
  "data": [
    {"smiles": "COc1cc(O)ccc1N1CCN(CCN(C(=O)C2CCCCC2)c2ccccc2OC(F)(F)F)CC1", "note": "[Example 93, 1[N-cyclohexylcarbonyl-N-(2-trifluoromethoxyphenyl)-2-aminoethyl]-4-(4-hydroxy-2-methoxyphenyl)piperazine]", "values": [
      {"measurement": "Ki", "result": 1.6, "unit": "nM"}
    ]},
    {"smiles": "COc1cc(OC(C)=O)ccc1N1CCN(CCN(C(=O)C2CCCCC2)c2ccccc2OC(F)(F)F)CC1", "note": "[Example 94, 1-[N-cyclohexylcarbonyl-N-(2-trifluoromethoxyphenyl)-2-aminoethyl]-4-(4-acetoxy-2-methoxyphenyl)piperazine]", "values": [
      {"measurement": "Ki", "result": 2.14, "unit": "nM"}
    ]},
    {"smiles": "COc1cc(OC(=O)C(C)C)ccc1N1CCN(CCN(C(=O)C2CCCCC2)c2ccccc2OC(F)(F)F)CC1", "note": "[Example 96, 1-[N-cyclohexylcarbonyl-N-(2-trifluoromethoxyphenyl)-2-aminoethyl]-4-[4-(2-methylpropionyloxy)-2-methoxyphenyl]piperazine]", "values": [
      {"measurement": "Ki", "result": 1.2, "unit": "nM"}
    ]}
  ]
}
